Source: US11702424B2, “Bicyclic-fused heteroaryl or aryl compounds” (Pfizer Inc., priority 2014, dated 2023)

How the values were obtained:
[1] = test system: collagen-induced arthritis; experiment: In Vivo Rat Collagen-Induced Arthritis Model; conditions: Lewis rat CIA; for days on which hind paw swelling in CIA rats was significantly reduced (t-test, p<0.05 vs. vehicle): paw volume by plethysmograph
Description: In Vivo Rat Collagen-Induced Arthritis Model.
Efficacy of IRAK4 compounds of the present invention was also evaluated in a rat in vivo model of rheumatoid arthritis (M. Hegen, J. C. Keith, Jr, M. Collins, C. L. Nickerson-Nutter, Ann. Rheum. Dis. 2008, 67, 1505-1515). An exemplary protocol for this in vivo model follows.
Female Lewis rats, approximately 7 weeks old, were immunized with an emulsion of type II collagen (CII) and incomplete Freund's adjuvant (IFA) on day 0 and received a boost of CII/IFA on day 7. Hind paw volume increase was taken by plethysmograph. Animals were randomly enrolled into treatment groups based on the development of disease. Beginning on day 11 post immunization, rats were enrolled into random treatment groups based on an increase in a single hind paw volume compared to day 7 post immunization baseline measurements.
Ten rats were enrolled per treatment group with the exception of the naive control group, which contained two rats. Day 0 was designated as the first treatment day, and paw measurements are taken daily by plethysmograph. The rats were weighed on a daily basis.
IRAK4 inhibitors are efficacious in the Lewis rat model of collagen-induced arthritis.

serum TNF = experiment: In Vivo Mouse LPS/D-Gal Challenge Model; conditions: oral, serum TNF vs. vehicle
Description: In Vivo Mouse LPS/D-Gal Challenge Model.
Efficacy of IRAK4 compounds of the present invention was also evaluated in an in vivo mouse model of endotoxin induced (Lipopolysaccharide (LPS)) inflammation. See: S. Copeland, H. W. Warren, S. F. Lowry, S. E. Calvano, and D. Remick, Clin. Diagn. Lab. Immnol. 2005, 12(1), 60-67. An exemplary protocol for this in vivo model follows.
Female C57/BL6 mice, 8 to 10 weeks old, are orally administered either vehicle or formulated IRAK-4 compound 1 hour prior to the challenge. Vehicle or IRAK4 compound is administered by oral gavage at a volume of 10 mL/kg. One hour post oral delivery of vehicle or compound, the animals are challenged with an intraperitoneal injection (IP) of a solution containing 1 μg/mL LPS and 80 mg/mL D-gal. Each mouse is injected with […] of the solution, for a final challenge dose of 100 ng LPS and 8 mg D-gal. Ninety minutes post LPS/D-gal challenge, animals are euthanized and blood collected. Blood is allowed to clot at room temperature and serum is separated by centrifugation and stored at −80° C. for analysis. Serum TNF and IL-6 are measured by Meso Scale Discovery (MSD) multiplex platform.
The groups consisted of N=10 animals/group. Naïve animals and vehicle control groups were run with each study. Mean cytokine data was plotted and students T-test was performed to calculate significance (t-test, p<0.05 vs. vehicle) of IRAK4 treated group vs. vehicle treated group. Percent inhibition of cytokine induction was calculated for IRAK4 treated group vs. vehicle treated group.
Table 4 contains data from multiple studies with columns for Compound, Dose in mg/kg (mpk) and % inhibition of serum TNF. In cases where doses of certain compounds were repeated in multiple experiments, the average percent inhibition of TNF and standard deviation is shown in the table.

[2] = target: human IRAK4 FL (Full Length) (Homo sapiens (Human), UniProt Q9NWZ3); experiment: IRAK4 Enzymatic DELFIA Assay, Protocol A; assay type: biochemical; conditions: 0.6 mM ATP (KM)
Chain of human IRAK4 FL (Full Length) (Q9NWZ3 whole entry): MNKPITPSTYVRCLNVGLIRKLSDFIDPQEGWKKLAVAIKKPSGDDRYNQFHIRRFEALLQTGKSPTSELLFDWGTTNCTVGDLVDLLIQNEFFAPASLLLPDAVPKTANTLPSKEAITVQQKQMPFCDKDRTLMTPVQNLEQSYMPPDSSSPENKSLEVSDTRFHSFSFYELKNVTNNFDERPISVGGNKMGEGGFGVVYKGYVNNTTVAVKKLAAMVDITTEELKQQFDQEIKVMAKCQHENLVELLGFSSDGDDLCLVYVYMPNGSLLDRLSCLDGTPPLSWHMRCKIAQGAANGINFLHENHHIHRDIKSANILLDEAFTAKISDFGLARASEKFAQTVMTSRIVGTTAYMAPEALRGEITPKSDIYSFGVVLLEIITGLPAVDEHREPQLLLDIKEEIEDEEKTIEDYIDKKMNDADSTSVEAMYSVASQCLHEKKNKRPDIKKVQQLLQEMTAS

Cc1ccc(-n2nc(C(C)(C)C)cc2NC(=O)Nc2ccc(OCCN3CCOCC3)c3ccccc23)cc1 [BIRB796, reference compound]
days on which hind paw swelling in CIA rats was significantly reduced (t-test, p<0.05 vs. vehicle) ([1]; 30 mg/kg PO, QD, positive control (p38 inhibitor)): Day 1-Day 8

CC(C)Oc1cc2c(OC[C@@H]3CCC(=O)N3)nccc2cc1C(N)=O [Example 26, 1-{[(2S)-5-oxopyrrolidin-2-yl]methoxy}-7-(propan-2-yloxy)isoquinoline-6-carboxamide]
hind paw swelling (delta paw volume) ([1]; 10 mg/kg PO, BID): transiently significant reduction in hind paw swelling only on Day 5 and Day 6
days on which hind paw swelling in CIA rats was significantly reduced (t-test, p<0.05 vs. vehicle) ([1]; 30 mg/kg PO, BID, therapeutic treatment for 8 days): Day 2-Day 8
days on which hind paw swelling in CIA rats was significantly reduced (t-test, p<0.05 vs. vehicle) ([1]; 100 mg/kg PO, BID, therapeutic treatment for 8 days): Day 1-Day 8 (end)
hind paw swelling (delta paw volume) ([1]; therapeutic treatment BID daily for 8 days, t-test p<0.05 vs. vehicle): reduced the hind paw swelling in CIA rats significantly

COc1cc2c(OC[C@@H]3CCC(=O)N3)cccc2cc1C(N)=O [Example 173, 3-methoxy-5-{[(2S)-5-oxopyrrolidin-2-yl]methoxy}naphthalene-2-carboxamide]
% inhib TNF (serum TNF; dose 30 mpk): 55%
% inhib TNF (serum TNF; dose 100 mpk): 98%

COc1cc2c(OC[C@H]3NC(=O)[C@@H](F)[C@H]3C)nccc2cc1C(N)=O [Example 189, 1-{[(2S,3S,4S)-4-fluoro-3-methyl-5-oxopyrrolidin-2-yl]methoxy}-7-methoxyisoquinoline-6-carboxamide]
% inhib TNF (serum TNF; dose 30 mpk): 40%

CC(C)Oc1cc2c(OC[C@@H]3C[C@@H](C4(O)COC4)C(=O)N3)nccc2cc1C(N)=O [Example 193, 1-{[(2S,4S)-4-(3-hydroxyoxetan-3-yl)-5-oxopyrrolidin-2-yl]methoxy}-7-(propan-2-yloxy)isoquinoline-6-carboxamide]
IC50 [2]: 238 nM

COc1cc2c(OC[C@@H]3C[C@](C)(F)C(=O)N3)cccc2cc1C(N)=O [Example 194, 5-{[(2S,4S)-4-fluoro-4-methyl-5-oxopyrrolidin-2-yl]methoxy}-3-methoxynaphthalene-2-carboxamide]
% inhib TNF (serum TNF; dose 30 mpk): 76%
